The values below come from US6951639B2, “1,4,7,10-tetraazacyclododecane butyltriols, processes for their production and pharmaceutical agents containing them” (Schering AG, priority 1990, dated 2005).

In series [1] the test system is mice. Briefly: Acute toxicity determination (LD50), intravenous administration in a caudal vein. It counts as in vivo. Particulars: mice 18-22 g, 2 ml/min, 7 days observation, death as criterion. As for the experimental part:
1. Acute Toxicity Determination (LD50)
In an individual cage (Rhema/Hofheim company) the contrast medium was administered to mice (weight: 18-22 g) approximately at body temperature in a caudal vein at a rate of 2 ml/min. […]
The contrast media were administered to 3 mice each in 3 doses at variable volumes and constant concentration. The allocation of the animals to the individual doses and the injection sequence of the doses took place by chance.
The observation period of the animals extended over 7 days per injection. The death of the animals was used as the criterion of the effectiveness.
(§1) The statistical evaluation of all study results took place with the probit analysis.

For series [2], the system named is rats. Briefly: Intracisternal administration (ED50), neural compatibility. The series is classed as in vivo, rats (Wistar-Han-Schering, SPF). Particulars: once intracisternally, 0.08 ml/animal, posture anomalies, spasms and death as criteria. As for the experimental part: 2. Intracisternal Administration (ED50)
The test substance was administered under light ether anesthesia to an equal number of female and male rats (130-170 g, Wistar-Han-Schering, SPF) once intracisternally by suboccipital puncture in constant volumes (0.08 ml/animal) in different concentrations (3 doses per 10 animals per substance). A volume sampling check (Ringer's solution) followed the study. Posture anomalies, spasms and death of the animals were evaluated as action criteria.
as §1

For series [3], the system named is cerebral infarction in the rat. Briefly: NMR-diagnostic in vivo examination: demonstration of a cerebral infarction in the rat. Details: species or system Wistar rat. Particulars: image 1 minute after administration. As for the experimental part: The experimental animal was a female Wistar rat weighing 200 g. For the induction of the cerebral infarction, the animal was first anesthetized. After intravenous injection of Bengal red with a dose of 20 mg/kg, an area of the brain about 0.7 cm in diameter near the bregma point was irradiated through the cranium with light of wavelength 548 nm (this corresponds to the maximum absorption of Bengal red), by which, because of the formation of singlet oxygen by a chain of various reactions, there results the aggregation of platelets and thus an infarction in the irradiated region.
The imaging took place in an MRI experimental device of the General Electric company (field strength, 2 teslas). It was performed with a spin echo sequence (TR=400 msec, Ts=20 msec). The layer thickness was 3 mm, and 4 averagings were performed respectively.
An axial sectional plane image without contrast medium where the cranium points downward was taken. The infraction area is indicated only quite weakly by a lower signal intensity in comparison to the healthy tissue. […] The same animal was administered another dose after about 20 minutes, this time in the amount of 0.3 mmol of Gd/kg.

The conditions of series [4]: reference value for monomer contrast media; cited from earlier work.

For the compound `O=C([O-])CN1CCN(CC(=O)[O-])CCN(C(CO)C(O)CO)CCN(CC(=O)[O-])CC1.[Gd+3]` (stereo not shown) [Example 2, Gadolinium Complex of 10-(1-hydroxymethyl-2,3-dihydroxypropyl)-1,4,7-triscarboxymethyl-1,4,7,10-tetraazacyclododecane], the “Acute i.v. LD50” value in series [1] worked out at 30 mmol/kg. Also, the “Neural ED50” value in series [2] was determined as 29 µmol/kg. The “signal enhancement in the area of infarction (MRI)” value is “clear enhancement” in series [3] (0.1 mmol of Gd/kg, 2 teslas, spin echo) and “enhancement substantially stronger than after the smaller dose” in series [3] (further dose of 0.3 mmol of Gd/kg after about 20 minutes).
Take `OC[C@@H](O)[C@@H](O)[C@H](O)[C@H](O)CO` [mannitol]: the intravenous compatibility in series [4] is 30 to 40 mmol/kg.
In the case of `O=C([O-])CN1CCN(CC(=O)[O-])CCN(CC(O)C(O)CO)CCN(CC(=O)[O-])CC1.[Gd+3]` (stereo not shown) [Example 1, Gadolinium Complex of 10-(2,3,4-trihydroxybutyl)-1,4,7-triscarboxymethyl-1,4,7,10-tetraazacyclododecane], in series [1], the “Acute i.v. LD50” value came out at 35 mmol/kg. For the same compound, the “Neural ED50” value in series [2] worked out at 27 µmol/kg.
